Tests used:
[1] = tested on: ion channels associated with glutamate receptors; assay: Glutamate-stimulated calcium-ion uptake in rat brain synaptosomes; settings: P2-fraction of synaptosomes from newborn rat brain; initial screening 5 uM
Experimental: Evaluation of the calcium-blocking properties of dimebon was conducted with P2-fraction of synaptosomes, which were isolated from the brain of newborn (8-11 days) rats according to the protocol described in [Bachurin et al. Neuroprotective and cognition enhancing properties of MK-801 flexible analogs. Structure-activity relationships./Ann. N.Y. Acad. Sci., 2001, v. 939, pp. 219-235]. In this test, the ability of the compounds to inhibit a specific uptake of calcium ions via ion channels associated with glutamate receptors was determined.
Synaptosomes were placed into the incubation buffer A (132 mM NaCl, 5 mM KCl, 5 mM HEPES) and were kept at 0 degrees Celsius (“C”) during the entire experiment. Aliquots of synaptosomes (50µl) were placed in the media A, containing investigated compounds and a preparation of the radiolabeled calcium, ^45Ca. […] A specific calcium uptake was calculated using the following equation K(43/21)=[(Ca4−Ca3)/(Ca2−Ca1)]*100% where: Ca1 is a calcium uptake in a control experiment (no glutamate or test compound added); Ca2 is a calcium uptake in the presence of glutamate only (Glutamate Induced Calcium Uptake—GICU); Ca3 is a calcium uptake in the presence of a test compound only (no glutamate added); Ca4 is a calcium uptake in the presence of both glutamate and a test compound.

[2] = tested on: C57/B female mice; assay: Geroprotector activity in aging mice; type: in vivo; settings: 3 mg/kg per day in drinking water
Experimental: Dimebon was evaluated as an agent that prolongs life and improves the quality of life (characterized by changes in the amount of pathologies that accompany ageing) in the laboratory animals.
Experiments were conducted with C57/B female mice, starting from their age of 12 months. Mice were kept on cells, 10 animals per a cell. Both control and experimental group included 50 animals in each group. […] The day-night cycle was 12 hours.
Prior to the experiment, daily and weekly water consumption by the animals in one cell was measured. Dimebon was added in water in such amount that each animal would consume 3 mg/kg of Dimebon per day in average. Bottles with water containing Dimebon were replaced every 7 days. Animals in the control group were receiving pure water.
Prior to the experiment, all the animals were weighed, and an average weight was determined in every group, every cell, as well as the weight of all animals in every cell. The condition of skin, hair, and eyes were also determined by visual inspection. […] Evaluation of all these parameters was conducted on a monthly basis.
Statistics were calculated using Student T-test and ‘Chi-squared’ criteria.

[3] = target: acetylcholinesterase (Homo sapiens, UniProt P22303); settings: recombinant enzyme and fresh blood samples from three volunteers; read-out: acetylcholinesterase half-maximal inhibitory concentration (IC50); cited from earlier work
acetylcholinesterase, sequence (P22303 32-574 limits assumed): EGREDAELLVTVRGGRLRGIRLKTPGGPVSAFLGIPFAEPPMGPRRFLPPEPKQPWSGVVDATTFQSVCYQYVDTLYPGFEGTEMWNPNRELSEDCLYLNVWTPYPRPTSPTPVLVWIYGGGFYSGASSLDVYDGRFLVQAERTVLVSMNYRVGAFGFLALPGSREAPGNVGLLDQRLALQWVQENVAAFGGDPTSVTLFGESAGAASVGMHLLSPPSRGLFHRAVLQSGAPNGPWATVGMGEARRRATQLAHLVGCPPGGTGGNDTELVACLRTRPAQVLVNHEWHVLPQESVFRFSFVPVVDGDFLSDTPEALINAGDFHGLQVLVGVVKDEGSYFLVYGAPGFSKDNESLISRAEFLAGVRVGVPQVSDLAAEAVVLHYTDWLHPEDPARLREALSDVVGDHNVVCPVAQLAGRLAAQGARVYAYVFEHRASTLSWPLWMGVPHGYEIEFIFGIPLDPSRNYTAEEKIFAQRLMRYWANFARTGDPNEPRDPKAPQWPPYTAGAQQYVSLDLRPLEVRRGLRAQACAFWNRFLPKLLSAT

[4] = target: NMDA receptor; settings: read-out: NMDA receptor inhibition constant (Ki); cited from earlier work
[5] = human clinical studies; cited from earlier work
[6] = tested on: SK—N—SH human neuroblastoma cells; settings: ionomycin-treated cells (70 percent without drug); picomolar concentrations; cited from earlier work
[7] = tested on: SK—N—SH human neuroblastoma cells; settings: ionomycin-treated cells (40 percent without drug); picomolar concentration; cited from earlier work
[8] = tested on: neuroblastoma line (SH—SY5Y); settings: pre-treatment with one nano-molar; cited from earlier work
[9] = tested on: primary rat cortical neurons; settings: cultured three days; picomolar concentrations; compared with BDNF at maximally effective concentrations; cited from earlier work
[10] = tested on: patients with mild to moderate AD; settings: cited from earlier work
[11] = tested on: mitochondrial permeability transition pores; settings: MPP(+) and beta-amyloid fragment 25-35; cited from earlier work

Q: Which “calcium-blocking properties (specific glutamate-induced 45Ca uptake)” value [1] does the source give for `Cc1ccc2c(c1)c1c(n2CCc2ccc(C)nc2)CCN(C)C1` [dimebon] here?
A: Its value is “pronounced calcium-blocking properties”.

Q: And the age-related weight depletion [2]?
A: Its age-related weight depletion is “No weight depletion was observed”.

Q: And the “development of non-fatal pathologies (loss of vision and alopecia)” value [2]?
A: The value was “slowing of the development of non-fatal pathologies”.

Q: And the probability of death ([2]; from age 12 months)?
A: Its probability of death is “lower in all age groups”.

Q: And the “amount of animals with cataract vs control” value ([2]; 13 to 20 months old mice)?
A: The value was “significantly less”.

Q: And the IC50 [3]?
A: The IC50 was 31 to 72 µM.

Q: And the Ki [4]?
A: The Ki was 97 µM.

Q: And the “participants/patients reporting gastrointestinal problems” value [5]?
A: Its value is “less than 3%”.

Q: What about the “JC-1 red/green ratio relative to control cells” value [6] of the same compound?
A: The value was 85-90%.

Q: And the “cell survival (MTT) relative to control cells” value [7]?
A: Its value is 75-85%.

Q: What about the “protection of mitochondrial function (TMRM probe)” value [8] of the same compound?
A: The value was “protected cells from ionomycin-induced stress”.

Q: And the neurite outgrowth [9]?
A: Its neurite outgrowth is “increased neurite outgrowth as well as did BDNF”.

Q: What about the “clinical endpoints and tolerability in one-year trial” value ([10]; one-year randomized double-blinded placebo-controlled trial, 183 patients) of the same compound?
A: The value was “met all five clinical endpoints with strong statistical significance, and was very well tolerated”.

Q: What about the safety and tolerability ([10]; six-month open-label extension, exposure to 18 months) of the same compound?
A: The safety and tolerability was “no safety or tolerability issues”.

Q: And the “prevention of neurotoxin-induced opening of mitochondrial pores” value [11]?
A: Its value is “prevented”.

— patent US7935823B2 (priority 2007, dated 2011)
